Test system: 885512-296-R-J2-PDC complex spheroid growth, % test/control
Experiment: Anticancer human tumor 885512-296-R-J2-PDC patient-derived breast carcinoma cell line growth inhibition [AhR]
Details: for IC50: curve of first compound; for viability, T/C: stronger effect = lower value; active = viability on the fitted dose curve at most 10% of control; inactive = the rest
How it was run: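 Spheroids combined tumor cells with HUVEC endothelial cells and human MSCs as stroma. AhR antagonists were paired with standard or investigational drugs, each dosed in half-log steps down from near clinical Cmax, or from 10 microM where Cmax was unknown.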

[1] = second compound 0.1 µM, first compound 0.000949 µM
[2] = second compound 0.1 µM, first compound 0.003 µM
[3] = second compound 0.1 µM, first compound 0.00949 µM
[4] = second compound 0.1 µM, first compound 0.03 µM
[5] = second compound 0.1 µM, first compound 0.0949 µM
[6] = second compound 0.1 µM, first compound 0.3 µM
[7] = second compound 0.316 µM, first compound 0.000949 µM
[8] = second compound 0.316 µM, first compound 0.003 µM
[9] = second compound 0.316 µM, first compound 0.00949 µM
[10] = second compound 0.316 µM, first compound 0.03 µM
[11] = second compound 0.316 µM, first compound 0.0949 µM
[12] = second compound 0.316 µM, first compound 0.3 µM
[13] = second compound 1 µM, first compound 0.000949 µM
[14] = second compound 1 µM, first compound 0.003 µM
[15] = second compound 1 µM, first compound 0.00949 µM
[16] = second compound 1 µM, first compound 0.03 µM
[17] = second compound 1 µM, first compound 0.0949 µM
[18] = second compound 1 µM, first compound 0.3 µM
[19] = second compound 3.16 µM, first compound 0.000949 µM
[20] = second compound 3.16 µM, first compound 0.003 µM
[21] = second compound 3.16 µM, first compound 0.00949 µM
[22] = second compound 3.16 µM, first compound 0.03 µM
[23] = second compound 3.16 µM, first compound 0.0949 µM
[24] = second compound 3.16 µM, first compound 0.3 µM
[25] = second compound 10 µM, first compound 0.000949 µM
[26] = second compound 10 µM, first compound 0.003 µM
[27] = second compound 10 µM, first compound 0.00949 µM
[28] = second compound 10 µM, first compound 0.03 µM
[29] = second compound 10 µM, first compound 0.0949 µM
[30] = second compound 10 µM, first compound 0.3 µM
[31] = second compound 0.1 µM, first compound 0.0316 µM
[32] = second compound 0.1 µM, first compound 0.1 µM
[33] = second compound 0.1 µM, first compound 0.316 µM
[34] = second compound 0.1 µM, first compound 1 µM
[35] = second compound 0.1 µM, first compound 3.16 µM
[36] = second compound 0.1 µM, first compound 10 µM
[37] = second compound 0.316 µM, first compound 0.0316 µM
[38] = second compound 0.316 µM, first compound 0.1 µM
[39] = second compound 0.316 µM, first compound 0.316 µM
[40] = second compound 0.316 µM, first compound 1 µM
[41] = second compound 0.316 µM, first compound 3.16 µM
[42] = second compound 0.316 µM, first compound 10 µM
[43] = second compound 1 µM, first compound 0.0316 µM
[44] = second compound 1 µM, first compound 0.1 µM
[45] = second compound 1 µM, first compound 0.316 µM
[46] = second compound 1 µM, first compound 1 µM
[47] = second compound 1 µM, first compound 3.16 µM
[48] = second compound 1 µM, first compound 10 µM
[49] = second compound 3.16 µM, first compound 0.0316 µM
[50] = second compound 3.16 µM, first compound 0.1 µM
[51] = second compound 3.16 µM, first compound 0.316 µM
[52] = second compound 3.16 µM, first compound 1 µM
[53] = second compound 3.16 µM, first compound 3.16 µM
[54] = second compound 3.16 µM, first compound 10 µM
[55] = second compound 10 µM, first compound 0.0316 µM
[56] = second compound 10 µM, first compound 0.1 µM
[57] = second compound 10 µM, first compound 0.316 µM
[58] = second compound 10 µM, first compound 1 µM
[59] = second compound 10 µM, first compound 3.16 µM
[60] = second compound 10 µM, first compound 10 µM
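Note: spheroids exposed to compounds for seven days.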

CC(C)CC(NC(=O)C(Cc1ccccc1)NC(=O)c1cnccn1)B(O)O (stereo not given) + Cc1ccccc1N=Nc1ccc(NC(=O)c2ccnn2C)c(C)c1
active: viability, T/C [4] 1.3% | viability, T/C [5] 0.26% | viability, T/C [6] 0.15% | viability, T/C [10] 1.13% | viability, T/C [11] 0.18% | viability, T/C [12] 0.13% | viability, T/C [16] 1.27% | viability, T/C [17] 0.5% | viability, T/C [18] 0.13% | viability, T/C [22] 1.47% | viability, T/C [23] 0.16% | viability, T/C [24] 0.14% | viability, T/C [28] 1.46% | viability, T/C [29] 0.3% | viability, T/C [30] 0.18%
3.21 nM: IC50 (second compound 10 µM)
7.08 nM: IC50 (second compound 0.316 µM)
inactive: viability, T/C [1] 96.7% | viability, T/C [2] 105% | viability, T/C [3] 26.3% | viability, T/C [7] 115% | viability, T/C [8] 122% | viability, T/C [9] 26.6% | viability, T/C [13] 111% | viability, T/C [14] 101% | viability, T/C [15] 21.8% | viability, T/C [19] 82% | viability, T/C [20] 94.2% | viability, T/C [21] 26.8% | viability, T/C [25] 58% | viability, T/C [26] 50.3% | viability, T/C [27] 25.8%
6.29 nM: IC50 (second compound 1 µM)
6.14 nM: IC50 (second compound 3.16 µM)
6.58 nM: IC50 (second compound 0.1 µM)

CCc1c2c(nc3ccc(O)cc13)-c1cc3c(c(=O)n1C2)COC(=O)[C@]3(O)CC + Cc1ccccc1N=Nc1ccc(NC(=O)c2ccnn2C)c(C)c1
inactive: viability, T/C [1] 15.3% | viability, T/C [7] 17.7% | viability, T/C [13] 16.8% | viability, T/C [19] 17.2% | viability, T/C [25] 14.9%
< 0.949 nM: IC50 (second compound 0.1 µM) | IC50 (second compound 0.316 µM) | IC50 (second compound 1 µM) | IC50 (second compound 3.16 µM) | IC50 (second compound 10 µM)
active: viability, T/C [2] 7.41% | viability, T/C [3] 6.43% | viability, T/C [4] 4.14% | viability, T/C [5] 1.83% | viability, T/C [6] 1.03% | viability, T/C [8] 7.53% | viability, T/C [9] 5.71% | viability, T/C [10] 3.77% | viability, T/C [11] 1.78% | viability, T/C [12] 1.57% | viability, T/C [14] 6.58% | viability, T/C [15] 5.11% | viability, T/C [16] 4.84% | viability, T/C [17] 2.6% | viability, T/C [18] 1.23% | viability, T/C [20] 6.69% | viability, T/C [21] 5.43% | viability, T/C [22] 4.44% | viability, T/C [23] 2.64% | viability, T/C [24] 1.47% | viability, T/C [26] 7.42% | viability, T/C [27] 5.87% | viability, T/C [28] 3.54% | viability, T/C [29] 2.17% | viability, T/C [30] 1.29%

Nc1ccccc1NC(=O)c1ccc(CNC(=O)OCc2cccnc2)cc1 + Cc1ccccc1N=Nc1ccc(NC(=O)c2ccnn2C)c(C)c1
< 31.6 nM: IC50 (second compound 10 µM)
inactive: viability, T/C [31] 95.5% | viability, T/C [32] 89.5% | viability, T/C [33] 64.3% | viability, T/C [34] 43.7% | viability, T/C [35] 28.3% | viability, T/C [36] 11.1% | viability, T/C [37] 92% | viability, T/C [38] 77.7% | viability, T/C [39] 68.8% | viability, T/C [40] 43.1% | viability, T/C [41] 26.5% | viability, T/C [42] 10.7% | viability, T/C [43] 97.7% | viability, T/C [44] 91.5% | viability, T/C [45] 69.5% | viability, T/C [46] 48.7% | viability, T/C [47] 29.2% | viability, T/C [48] 11.2% | viability, T/C [49] 75.2% | viability, T/C [50] 69.7% | viability, T/C [51] 62.3% | viability, T/C [52] 44.3% | viability, T/C [53] 27.7% | viability, T/C [54] 12.4% | viability, T/C [55] 49.4% | viability, T/C [56] 45.1% | viability, T/C [57] 44.5% | viability, T/C [58] 32.5% | viability, T/C [59] 23.5% | viability, T/C [60] 12.8%
764 nM: IC50 (second compound 0.316 µM)
713 nM: IC50 (second compound 3.16 µM)
958 nM: IC50 (second compound 1 µM)
763 nM: IC50 (second compound 0.1 µM)

O=C(c1cc(Cc2n[nH]c(=O)c3ccccc23)ccc1F)N1CCN(C(=O)C2CC2)CC1 + Cc1ccccc1N=Nc1ccc(NC(=O)c2ccnn2C)c(C)c1
4790 nM: IC50 (second compound 3.16 µM)
inactive: viability, T/C [31] 118% | viability, T/C [32] 135% | viability, T/C [33] 147% | viability, T/C [34] 117% | viability, T/C [35] 83.7% | viability, T/C [36] 22.6% | viability, T/C [37] 138% | viability, T/C [38] 145% | viability, T/C [39] 138% | viability, T/C [40] 130% | viability, T/C [41] 80% | viability, T/C [42] 23.4% | viability, T/C [43] 121% | viability, T/C [44] 133% | viability, T/C [45] 132% | viability, T/C [46] 109% | viability, T/C [47] 80.4% | viability, T/C [48] 18.7% | viability, T/C [49] 110% | viability, T/C [50] 103% | viability, T/C [51] 111% | viability, T/C [52] 101% | viability, T/C [53] 66.6% | viability, T/C [54] 20.8% | viability, T/C [55] 67.1% | viability, T/C [56] 59.5% | viability, T/C [57] 66.4% | viability, T/C [58] 70.8% | viability, T/C [59] 52.6% | viability, T/C [60] 17.5%
5920 nM: IC50 (second compound 0.1 µM)
5520 nM: IC50 (second compound 1 µM)
5820 nM: IC50 (second compound 0.316 µM)
3440 nM: IC50 (second compound 10 µM)
